Results from patent publication US9273057B2 (Bristol-Myers Squibb Company, priority 2012, dated 2016).

These compounds were tested against CK2A1 (CK2α/β) (Homo sapiens, UniProt P68400) (assay: CK2 kinase assay, CK2A1 (CK2α/β)). Conditions: Table A; read-out: CK2A1 (CK2α/β) (IC50).
Type: biochemical

Sequence of CK2A1 (CK2α/β) (P68400 whole entry, species assumed): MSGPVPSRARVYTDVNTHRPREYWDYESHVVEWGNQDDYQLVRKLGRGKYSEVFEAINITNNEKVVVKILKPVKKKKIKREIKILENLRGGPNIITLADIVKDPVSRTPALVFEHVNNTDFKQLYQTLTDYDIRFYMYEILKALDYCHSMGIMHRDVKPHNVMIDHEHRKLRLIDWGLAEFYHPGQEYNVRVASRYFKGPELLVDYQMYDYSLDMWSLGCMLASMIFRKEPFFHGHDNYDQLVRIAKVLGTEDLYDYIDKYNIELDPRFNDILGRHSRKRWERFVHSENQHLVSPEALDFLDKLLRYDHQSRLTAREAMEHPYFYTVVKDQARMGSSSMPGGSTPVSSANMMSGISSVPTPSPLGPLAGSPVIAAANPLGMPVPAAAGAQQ
Sequence of CK2A1 (CK2α/β) (P67870 whole entry partner, species assumed): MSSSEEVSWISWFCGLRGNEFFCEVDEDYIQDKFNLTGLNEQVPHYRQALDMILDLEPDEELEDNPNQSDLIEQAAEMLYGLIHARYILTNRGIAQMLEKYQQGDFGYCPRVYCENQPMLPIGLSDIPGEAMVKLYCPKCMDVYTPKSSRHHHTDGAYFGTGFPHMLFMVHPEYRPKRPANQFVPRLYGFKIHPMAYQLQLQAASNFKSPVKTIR

SMILES	IC50
CC(C)(C)NCc1cc(C#N)cc(Nc2nc(NC3CC3)c3ncc(C#N)n3n2)c1Cl [Example 468, 2-({3-[(tert-butylamino)methyl]-2-chloro-5-cyanophenyl}amino)-4-(cyclopropylamino)imidazo[2,1-f][1,2,4]triazine-7-carbonitrile]	0.3 nM
CN(C)C(=O)C1CN(c2cc(C#N)cc(Nc3nc(NC4CC4)c4ncc(C#N)n4n3)c2Cl)CCN1CC(O)CF (single isomer, unassigned) [Example 316, (+/−) 4-(2-chloro-5-cyano-3-((7-cyano-4-(cyclopropylamino)imidazo [2,1-f][1,2,4]triazin-2-yl)amino)phenyl)-1-(3-fluoro-2-hydroxypropyl)-N,N-dimethyl-2-piperazinecarboxamide]	1.87 nM
N#Cc1cc(Nc2nc(NC3CC3)c3ncc(C#N)n3n2)c(Cl)c(N2CC3CNCC3C2)c1 (stereo not drawn) [Example 455, 2-((2-chloro-5-cyano-3-(hexahydropyrrolo[3,4-c]pyrrol-2(1H)-yl)phenyl)amino)-4-(cyclopropylamino)imidazo[2,1-f][1,2,4]triazine-7-carbonitrile]	0.49 nM
COCC(C)N1CCN(c2cc(C#N)cc(Nc3nc(NC4CC4)c4ncc(C#N)n4n3)c2Cl)CC1 (racemic) [Example 64, (+/−) 2-((2-chloro-5-cyano-3-(4-(2-methoxy-1-methylethyl)-1-piperazinyl)phenyl)amino)-4-(cyclopropylamino) imidazo[2,1-f][1,2,4] triazine-7-carbonilrile]	0.71 nM
CN(CC1CN(c2cc(C#N)cc(Nc3nc(NC4CC4)c4ncc(C#N)n4n3)c2Cl)CCO1)CC(C)(C)O (stereo not drawn) [Example 701, 2-{[2-chloro-5-cyano-3-(2-{[(2-hydroxy-2-methylpropyl)(methyl)amino]methyl}morpholin-4-yl)phenyl]amino}-4-(cyclopropylamino)imidazo[2,1-f][1,2,4]triazine-7-carbonitrile]	2.68 nM
N#Cc1cnc2c(NC3CC3)nc(Nc3cc(C(F)F)cc(N4CCC(N5CC(F)C5)CC4)c3Cl)nn12 [Example 258, 2-((2-chloro-5-(difluoromethyl)-3-(4-(3-fluoro-1-azetidinyl)-1-piperidinyl)phenyl)amino)-4-(cyclopropylamino)imidazo[2,1-f][1,2,4]triazine-7-carbonitrile]	1.93 nM
N#Cc1cc(Nc2nc(NC3CC3)c3ncc(C#N)n3n2)c(Cl)c(N2CCN(C3CN(C(=O)C4CC4)C3)CC2)c1 [Example 485, 2-({2-chloro-5-cyano-3-[4-(1-cyclopropanecarbonyl-azetidin-3-yl)piperazin-1-yl]phenyl}amino)-4-(cyclopropylamino)imidazo[2,1-f][1,2,4]triazine-7-carbonitrile]	0.77 nM
CCNc1nc(Nc2cc(C#N)cc(N3CCC(N(C(=O)OC)C4COC4)CC3)c2Cl)nn2c(C#N)cnc12 [Example 366, methyl (1-(2-chloro-5-cyano-3-((7-cyano-4-(ethylamino)imidazo[2,1-f][1,2,4]triazin-2-yl)amino)phenyl)piperidin-4-yl)(oxetan-3-yl)carbamate]	0.78 nM
CCNc1nc(Nc2cc(C#N)cc(N3CC[C@@H]4[C@@H](C3)OC(=O)N4[C@H]3CCOC3)c2Cl)nn2c(C#N)cnc12 (single isomer, unassigned) [Example 841]	2.31 nM
COc1ccc(CN2CCN(c3cc(C#N)cc(Nc4nc(NC5CC5)c5ncc(C#N)n5n4)c3Cl)C(=O)C2)cc1 [Example 631, 2-((2-chloro-5-cyano-3-(4-(4-methoxybenzyl)-2-oxopiperazin-1-yl)phenyl)amino)-4-(cyclopropylamino)imidazo[2,1-f][1,2,4]triazine-7-carbonitrile]	1.1 nM
CCNc1nc(Nc2cc(C#N)cc(N3CC[C@@H]4[C@@H](C3)OC(=O)N4C3COC3)c2Cl)nn2c(C#N)cnc12 [Example 839, 2-((2-chloro-5-cyano-3-((3aR,7aR)-1-(oxetan-3-yl)-2-oxohexahydrooxazolo[5,4-c]pyridin-5(2H)-yl)phenyl)amino)-4-(ethylamino)imidazo[2,1-f][1,2,4]triazine-7-carbonitrile]	1.19 nM
CCNc1nc(Nc2cc(C#N)cc(N3CC(N4CCN(C)CC4)C3)c2F)nn2c(C#N)cnc12 [Example 383, 2-((5-cyano-2-fluoro-3-(3-(4-methylpiperazin-1-yl)azetidin-1-yl)phenyl)amino)-4-(ethylamino)imidazo[2,1-f][1,2,4]triazine-7-carbonitrile]	0.77 nM
N#Cc1cc(Nc2nc(NC3CC3)c3ncc(C#N)n3n2)c(Cl)c(N2CCN(C3CN(C(=O)CO)C3)CC2)c1 [Example 488, 2-[(2-chloro-5-cyano-3-{4-[1-(2-hydroxyacetyl)azetidin-3-yl]piperazin-1-yl}phenyl)amino]-4-(cyclopropylamino)imidazo[2,1-f][1,2,4]triazine-7-carbonitrile]	0.6 nM

Other lines, results leading:

IC50	SMILES
3.68 nM	CCNc1nc(Nc2cc(C#N)cc(N3CCN(C4COC4)CC3)c2F)nn2c(C#N)cnc12 [Example 556, 2-((5-cyano-2-fluoro-3-(4-(oxetan-3-yl)piperazin-1-yl)phenyl)amino)-4-(ethylamino)imidazo[2,1-f][1,2,4]triazine-7-carbonitrile]
0.89 nM	CC(O)CN1CCC2CN(c3cc(C#N)cc(Nc4nc(NC5CC5)c5ncc(C#N)n5n4)c3Cl)CCC21 (racemic) [Example 447, (+/−)-2-((2-chloro-5-cyano-3-(1-(2-hydroxypropyl)hexahydro-1H-pyrrolo[3,2-c]pyridin-5(6H)-yl)phenyl)amino)-4-(cyclopropylamino)imidazo[2,1-f][1,2,4]triazine-7-carbonitrile]
3.3 nM	CCNc1nc(Nc2cc(NC(=O)OC)cc(C3CCN(C)CC3)c2Cl)nn2c(C#N)cnc12 [Example 398, methyl (4-chloro-3-((7-cyano-4-(ethylamino)imidazo[2,1-f][1,2,4]triazin-2-yl)amino)-5-(1-methylpiperidin-4-yl)phenyl)carbamate]
0.27 nM	CN1CCN(CCC(F)(F)c2cc(C#N)cc(Nc3nc(NC4CC4)c4ncc(C#N)n4n3)c2Cl)CC1 [Example 738, 2-((2-chloro-5-cyano-3-(1,1-difluoro-3-(4-methylpiperazin-1-yl)propyl)phenyl)amino)-4-(cyclopropylamino)imidazo[2,1-f][1,2,4]triazine-7-carbonitrile]
4.77 nM	N#Cc1cc(Nc2nc(NC3CC3)c3ncc(C#N)n3n2)c(Cl)c(N2CCN(C3CN(C(=O)C4CCOC4)C3)CC2)c1 (stereo not drawn) [Example 523, 2-[(2-chloro-5-cyano-3-{4-[1-(oxolane-3-carbonyl)azetidin-3-yl]piperazin-1-yl}phenyl)amino]-4-(cyclopropylamino)imidazo[2,1-f][1,2,4]triazine-7-carbonitrile]
0.68 nM	N#Cc1cnc2c(NC3CC3)nc(Nc3cc(C(F)F)cc(NCC(O)CO)c3Cl)nn12 (stereo not drawn) [Example 254, 2-((2-chloro-5-(difluoromethyl)-3-((2,3-dihydroxypropyl)amino)phenyl)amino)-4-(cyclopropylamino)imidazo[2,1-f][1,2,4]triazine-7-carbonitrile]
1.75 nM	N#Cc1cc(Nc2nc(NC3CC3)c3ncc(C#N)n3n2)c(Cl)c(C2CCN(C3CCC3O)CC2)c1 (single isomer, unassigned) [Example 645, Cis and trans 2-((2-chloro-5-cyano-3-(1-(2-hydroxycyclobutyl)piperidin-4-yl)phenyl)amino)-4-(cyclopropylamino)imidazo[2,1-f][1,2,4]triazine-7-carbonitrile]
1.3 nM	N#Cc1cnc2c(NC3CC3)nc(Nc3cc(C(F)F)cc(N4CCN(C5COC5)CC4)c3Cl)nn12 [Example 242, 2-((2-Chloro-5-(difluoromethyl)-3-(4-(oxetan-3-yl)piperazin-1-yl)phenyl)amino)-4-(cyclopropylamino)imidazo[2,1-f][1,2,4]triazine-7-carbonitrile]
4.9 nM	C[C@@H]1CN(c2cc(C#N)cc(Nc3nc(NC4CC4)c4ncc(C#N)n4n3)c2Cl)C[C@H]1O (racemic) [Example 20, (+/−) 2-((2-chloro-5-cyano-3-((3S,4R)-3-hydroxy-4-methyl-1-pyrrolidinyl)phenyl)amino)-4-(cyclopropylamino)imidazo [2,1-f][1,2,4]triazine-7-carbonitrile]
0.43 nM	CCNc1nc(Nc2cc(C#N)cc(N3CC[C@H]4NC(=O)O[C@@H]4C3)c2Cl)nn2c(C#N)cnc12 [Example 375, 2-((2-chloro-5-cyano-3-((3aR,7aR)-2-oxohexahydrooxazolo[5,4-c]pyridin-5(2H)-yl)phenyl)amino)-4-(ethylamino)imidazo[2,1-f][1,2,4]triazine-7-carbonitrile]
0.67 nM	N#CCNC1CCN(c2cc(C#N)cc(Nc3nc(NC4CC4)c4ncc(C#N)n4n3)c2Cl)CC1 [Example 141, 2-((2-chloro-5-cyano-3-(4-((cyanomethyl)amino)-1-piperidinyl)phenyl)amino)-4-(cyclopropylamino)imidazo [2,1-f][1,2,4]triazine-7-carbonitrile]
0.68 nM	CC1(O)CN(C2CCN(c3cc(C#N)cc(Nc4nc(NC5CC5)c5ncc(C#N)n5n4)c3Cl)CC2)C1 [Example 111, 2-(2-chloro-5-cyano-3-(4-(3-hydroxy-3-methylazetidin-1-yl)piperidin-1-yl)phenylamino)-4-(cyclopropylamino)imidazo [1,2-f][1,2,4]triazine-7-carbonitrile]
3.66 nM	N#Cc1cc(Nc2nc(NC3CC3)c3ncc(C#N)n3n2)c(Cl)c(N2CCN(C3CN(C(=O)C4CCCO4)C3)CC2)c1 (stereo not drawn) [Example 517, 2-[(2-chloro-5-cyano-3-{4-[1-(oxolane-2-carbonyl)azetidin-3-yl]piperazin-1-yl}phenyl)amino]-4-(cyclopropylamino)imidazo[2,1-f][1,2,4]triazine-7-carbonitrile]
0.32 nM	N#Cc1cc(Nc2nc(NC3CC3)c3ncc(C#N)n3n2)c(Cl)c(N2CCN(C(=O)Cc3nnn[nH]3)CC2)c1 [Example 99, 2-((2-chloro-5-cyano-3-(4-(1H-tetrazol-5-ylacetyl)-1-piperazinyl)phenyl)amino)-4-(cyclopropylamino) imidazo[2,1-f][1,2,4] triazine-7-carbonitrile]
